Reference: ChEMBL document CHEMBL4627248, “Emerging small-molecule therapeutic approaches for amyotrophic lateral sclerosis and frontotemporal dementia” (Bioorg Med Chem Lett, 2020)

Columns and labels:
[1] = target: (G4C2)8 hairpin RNA; test: Binding affinity to (G4C2)8 hairpin RNA (unknown origin) by TO-PRO-1 dye displacement assay
[2] = target: T1, TAR DNA-binding protein 43 (Homo sapiens, UniProt Q13148); test: Inhibition of TDP-43 (unknown origin) binding to RNA
[3] = target: T1, TAR DNA-binding protein 43; test: Binding affinity to TDP-43 (unknown origin)

T1 sequence (Q13148 whole entry): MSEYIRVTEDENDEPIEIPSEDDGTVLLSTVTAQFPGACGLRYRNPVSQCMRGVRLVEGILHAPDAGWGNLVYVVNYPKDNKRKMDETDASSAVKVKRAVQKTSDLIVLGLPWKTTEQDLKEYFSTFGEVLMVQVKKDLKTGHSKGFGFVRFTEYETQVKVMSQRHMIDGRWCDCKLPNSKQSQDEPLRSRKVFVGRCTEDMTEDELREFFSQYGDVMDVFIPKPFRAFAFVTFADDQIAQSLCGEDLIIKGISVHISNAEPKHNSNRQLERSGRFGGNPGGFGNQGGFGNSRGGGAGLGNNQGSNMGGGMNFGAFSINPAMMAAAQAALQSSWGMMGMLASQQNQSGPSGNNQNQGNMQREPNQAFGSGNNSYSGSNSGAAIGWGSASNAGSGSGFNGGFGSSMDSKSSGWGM

Kd [1] [µM] | IC50 [2] [µM] | Structure (SMILES) | other results
0.9 |  | Cc1c2cc[n+](C)cc2c(C)c2c1[nH]c1ccc(O)cc12 | 
1.4 |  | CCN(CC)CC[n+]1ccc2c(C)c3[nH]c4ccc(O)cc4c3c(C)c2c1 | 
16 |  | CCN(CC)CCNC(=O)c1cc2cc(NC(=O)c3cc4cc(N)ccc4[nH]3)ccc2[nH]1 | 
 | 0.1 | COc1cc(NC(=O)CCC2CCCN(Cc3ccc(F)c(OC)c3)C2)cc(OC)c1 (stereo not given) | 
 |  | NC(=O)c1cncc(N2CCCC(CO)(Cc3ccc(F)cc3)C2)n1 (stereo not given) | Kd [3]: 89 µM
 | > 0.1 | CCc1cccc(C)c1NS(=O)(=O)c1cnccc1C(=O)N1CCCC1 | 
10 |  | N=C(N)c1ccc(Nc2ccc(-c3cc4ccc(C(=N)N)cc4[nH]3)cc2)cc1 | 
 | 20 | NC(=O)CCCCC1CCSS1 (racemic) [THIOCTIC ACID AMIDE] | 
 | 20 | O=C(O)CCCC[C@@H]1CCSS1 [THIOCTIC ACID] | 

Structure (SMILES) | Kd [1] [µM] | IC50 [2] [µM] | other results
O=C1c2c(O)ccc(O)c2C(=O)c2c(NCCNCCO)ccc(NCCNCCO)c21 [MITOXANTRONE] |  | 10 | 
